Measurements as given in patent US20180015038A1, “OMEGA-3 FATTY ACID SELF-EMULSIFYING COMPOSITION” (MOCHIDA PHARMACEUTICAL CO., LTD., priority 2015, published 2018).

Experiment: Evaluation of appearance (Test Example 1)
Type: physicochemical
Conditions: allowed to stand, about 1 hour after production; transparent / separated / cloudy
Protocol: After producing the pharmaceutical compositions and the self-emulsifying compositions of Reference Examples by the production methods as described above, the compositions were allowed to stand, and after about 1 hour, their appearance was evaluated. The composition was evaluated “transparent” when the composition was homogeneous due to the good compatibility. The composition was evaluated “separated” when the separation was observed and “cloudy” when opacity was observed.

Appearance: good appearance was not realized
Structure (SMILES): CC(C)c1c(C(=O)Nc2ccccc2)c(-c2ccccc2)c(-c2ccc(F)cc2)n1CC[C@@H](O)C[C@@H](O)CC(=O)[O-].CC(C)c1c(C(=O)Nc2ccccc2)c(-c2ccccc2)c(-c2ccc(F)cc2)n1CC[C@@H](O)C[C@@H](O)CC(=O)[O-].[Ca+2] [atorvastatin calcium]
